Assay results reported in patent US5670479A, “α-ketoamide derivatives as inhibitors of thrombosis” (Corvas International, Inc., priority 1994, dated 1997).

How the values were obtained:
[1] = biological target: T1, clot-bound a-thrombin (Homo sapiens, UniProt P00734); assay: Inhibition of clot-bound thrombin (FPA generation in citrated plasma); assay type: biochemical
T1 construct: from tissue; host or cells: washed clots formed from citrated plasma by adding CaCl2
Protocol: Plasma clots were formed around wire hooks by the addition of CaCl2 (final concentration, 25 mM) to 500 μl aliquots of citrated plasma. After aging the clots for 60 minutes at 37° C. with constant agitation, the clots were washed 10 times with 2 ml aliquots of 0.1M NaCl buffered with 0.05M Tris-HCL, pH 7.4 over an 18 hour period. The washed clots were then incubated in 1 ml aliquots of citrated plasma for 60 minutes at 37° C. in the absence or presence of the various inhibitors. At timed intervals, 100 μl aliquots were removed and the reaction was terminated by the addition of the irreversible serine protease inhibitor, D-phenylalanyl-prolinyl-argininyl-CH2 Cl.
Unreacted fibrinogen was precipitated with ethanol, and the ethanol supernatants were then assayed for FPA.

[2] = tested on: washed human platelets; assay: Thrombin-induced aggregation in washed human platelets; assay type: cell-based
Protocol: Washed human platelets were prepared from freshly isolated venous blood obtained from normal, healthy volunteers who had not taken any medication which might affect platelet function, according to the procedure of Connolly, T. M. et al., J. Biol. Chem., 267: 6893. (1992). Inhibitors, were added in a volume of […] to […] of prewarmed washed platelets in a siliconized glass cuvette (Chronolog Corp., Hayertown, Pa.) followed by […] of 0.25M CaCl2. The rate and extent of aggregation were measured for 5-15 minutes by the change in light transmission in a stirred cuvette, following the addition of […] of a-thrombin (final concentration 2 nM), using a Chronolog Whole Blood Aggregometer equipped with the Aggro/Link data acquisition system (Chronolog Corp., Hayertown, Pa.).

[3] = biological target: a-thrombin (Homo sapiens, UniProt P00734); assay: Amidolytic thrombin assay (inhibitor constant Ki, Ki*); assay type: biochemical; set-up: Purified human a-thrombin; purchased Enzyme Research Laboratories, Inc; conditions: human a-thrombin 0.25 nM, Pefachrome t-PA substrate, HBSA pH 7.5
Protocol: The ability of the compounds of the present invention to act as inhibitors of thrombin catalytic activity in comparison to Hirulog-1 (compound 25) was assessed by determining their inhibition constant, Ki.
Enzyme activity was determined using the chromogenic substrate Pefachrome t-PA (CH3 SO2 -D-hexahydrotyrosine-glycyl-L-arginine-p-nitroaniline, obtained from Pentapharm Ltd.). The substrate was reconstituted in deionized water prior to use.
Ki values were determined for test compounds using the following methodologies:
The assay was conducted by combining in appropriate wells of a Corning microtiter plate, […], […] of the test compound at a specified concentration diluted in HBSA (or HBSA alone for Vo(uninhibited velocity) measurement), and 50 mL of the chromogenic substrate diluted in HBSA. […] Velocities of Pefachrome-tPA substrate hydrolysis which occurred over a 40 minute time period was measured by the change in absorbance at 405 nm using a Thermo Max® Kinetic Microplate Reader. […]
The initial velocity of Pefachrome t-PA hydrolysis was measured by the change in absorbance at 405 nm using a Thermo Max® Kinetic Microplate Reader over a 2 minute period in which less than 5% of the added substrate was utilized. […]
Ki* was determined by fitting Vs/Vo verses [I] using Equation 1 by non-linear regression analysis. […]

[4] = tested on: Male Harlan Sprague Dawley rats; assay: Venous stasis model in rats; assay type: in vivo; conditions: rat; for % Clot: mean ± S.E.M.
Protocol: This is one of the most commonly used models in the evaluation of antithrombotic compounds. Hladovec, J. Thromb. […] Talbot, M. D., et. al., Thromb.
Male Harlan Sprague Dawley rats (420-450 g) were acclimated at least 72 hours prior to use. The animals were fasted for 12 hours prior to surgery with free access to water. The animals were anesthetized with a sodium pentobarbital (Nembutal) given intraperitoneally at a dose of 50 mg/kg body weight and placed on a isothermal pad to maintain body temperature. The level of anesthesia was monitored every 15 minutes by: neuro-response to a tail pinch, respiration and body core temperature. The desired depth of surgical anesthesia was maintained by administering subsequent doses (5 mg/kg) intravenously. The left femoral artery was catheterized with polyethylene tubing (PE50) using standard procedures for blood pressure monitoring and blood sampling. The left and right femoral veins were catheterized with PE50 tubing for delivery of anesthetic and test compounds respectively.
Blood pressure, heart rate, core temperature and respiration were monitored continuously.
The abdomen of the animals is opened by making a vertical midline incision followed by isolation of the IVC using dissection. The segment extends from below the renal to above the iliac vessels (about 2 cm in length). The peripheral blood vessels are tied off and a ligature is loosely placed at the distal and proximal ends of the isolated segment. Rabbit brain thromboplastin (RBT)(Sigma Chemical Co., St. Louis Mo.) is prepared by resuspending the contents of the vial with 2 mL of sterile saline pre-warmed to 37° C. At the end of the 30 minute infusion period, RBT is systemically administered as a bolus injection (1.5 mL/kg) via the femoral catheter. Stasis is induced within the isolated IVC segment by securing the proximal and distal ligature 10 sec following the administration of the RBT. Following a 30 minute period of stasis the tied off IVC segment is removed and the contents weighed. Clot formation was defined as %clot: [Weight of the isolated clot/(Weight of the intact segment-the weight of the empty segment)] ×100. This method was used to correct for slight differences in segment size and fluid content.
Following termination of the experiment the animal was euthanized with a 120 mg/kg dose of Nembutal.

(D-Phe)-Pro-Arg-Pro-(Gly)4 -Asn-Gly-Asp-Phe-Glu-Glu-Ile-Pro-Glu-Glu-Tyr-Leu-OH [Hirulog-1]
inhibition of clot-bound a-thrombin-mediated FPA generation ([1]; citrated human plasma, 60 min, 37° C., compound 8 18.75 nM, Hirulog-1 500 nM, rHIR 4 nM, FIG. 5B): only transiently inhibited FPA generation | inhibition of clot-bound versus fluid-phase thrombin at 60 minutes incubation ([1]; percent inhibition of FPA generation at 60 min, FIG. 6): less inhibitory activity against clot-bound thrombin | persistence of inhibition of aggregation over the 15 minute assay ([2]; 20 nM (compound 8), same or higher concentrations (Hirulog-1), FIG. 4): did not cause sustained inhibition | IC50 ([2]; a-thrombin 2 nM, extent of aggregation over 1 minute, mean ± SD of three): 16 ± 3 nM | Ki [3]: 0.437 nM | % Clot ([4]; 0.1 mg/kg i.v. bolus + 40 mg/kg/min i.v. infusion): 25.75 ± 3.71% | % Clot ([4]; 0.1 mg/kg i.v. bolus + 60 mg/kg/min i.v. infusion): 26.50 ± 3.59% | % Clot ([4]; 0.1 mg/kg i.v. bolus + 80 mg/kg/min i.v. infusion): 25.75 ± 0.41% | effect on venous thrombus formation induced by stasis and thromboplastin ([4]; summary in words): did not have any effect
